Results reported in US7432392B2, “Ester derivatives and medical use thereof” (Japan Tobacco Inc., priority 2003, dated 2008).

Experiments:
[1] = system: apolipoprotein B secretion from HepG2 cells; test: Inhibition of apolipoprotein B secretion from HepG2 cells; assay type: cell-based; details: Homo sapiens, about 20 hours incubation, apo B in supernatant by ELISA
Procedure: HepG2 cells were suspended in Dulbecco's Modified Eagle's Medium (DMEM) (containing 10% fetal bovine serum, 100 units/mL penicillin and 100 μg/mL streptomycin), and placed on a 96-well plate (4×10^4 cells/well), then incubated for 24 hours. After removal of the medium, DMEM was replaced by a medium containing a sample dissolved in DMSO or a medium containing DMSO (concentration of DMSO: 0.5%) and incubation was further performed for about 20 hours, after which the supernatant was recovered, and concentration of apo B in the supernatant was assayed by Enzyme-Linked Immunosorbent Assay (ELISA)
ELISA was carried out as follows. Anti-human apo B monoclonal antibody (0.5 μg/well) diluted with a 50 mM sodium carbonate/sodium bicarbonate buffer was placed in a 96-well plate for ELISA, and allowed to stand at room temperature for 15 hours. After washing the plate, a blocking solution (250 μL/well) was placed in the well, and allowed to stand at room temperature for 1.5 hours. After washing the plate, a standard and a sample (100 μL/well) were placed in the well and allowed to stand at room temperature for 1.5 hours. The standard was prepared by adjusting the concentration of the purified human apo B with the DMEM to 0 to 250 ng/mL. After washing the plate, an anti-human apo B polyclonal antibody labeled with a horse radish peroxidase which was diluted in 1:1000 with DEME (100 μL/well) was added, and allowed to stand at room temperature for 1.5 hours. After washing the plate, 2,2-azinobis(3-ethylbenzothiazoline-6-sulfonic acid) solution (100 μL/well) was placed in the well, and allowed to stand at room temperature for 0.5 hour. The reaction was stopped by addition of 2% oxalic acid (100 μL/well), and absorbency at 405 nm was measured. Concentration of apo B in the sample was calculated on the basis of a standard curve of the standard. Inhibition rate (%) was calculated from the assayed values in accordance with the following equation. Inhibition rate (%)=100×(1 minus (concentration of apo B in sample group/concentration of apo B in DMSO group).
Based on the above equation, 50% inhibition concentration (IC50) was determined.

[2] = molecular target: T1, Microsomal triglyceride transfer protein (MTP) from bovine liver (Bos taurus, UniProt P55156); test: Inhibition of interliposomal triglyceride (TG) transfer activity by MTP; assay type: biochemical; details: MTP-mediated TG transfer between donor and acceptor liposomes, 37° C., one hour
T1 construct: the purified MTP was used for the test; from tissue; host or cells: bovine liver
T1 sequence (P55156 12-887): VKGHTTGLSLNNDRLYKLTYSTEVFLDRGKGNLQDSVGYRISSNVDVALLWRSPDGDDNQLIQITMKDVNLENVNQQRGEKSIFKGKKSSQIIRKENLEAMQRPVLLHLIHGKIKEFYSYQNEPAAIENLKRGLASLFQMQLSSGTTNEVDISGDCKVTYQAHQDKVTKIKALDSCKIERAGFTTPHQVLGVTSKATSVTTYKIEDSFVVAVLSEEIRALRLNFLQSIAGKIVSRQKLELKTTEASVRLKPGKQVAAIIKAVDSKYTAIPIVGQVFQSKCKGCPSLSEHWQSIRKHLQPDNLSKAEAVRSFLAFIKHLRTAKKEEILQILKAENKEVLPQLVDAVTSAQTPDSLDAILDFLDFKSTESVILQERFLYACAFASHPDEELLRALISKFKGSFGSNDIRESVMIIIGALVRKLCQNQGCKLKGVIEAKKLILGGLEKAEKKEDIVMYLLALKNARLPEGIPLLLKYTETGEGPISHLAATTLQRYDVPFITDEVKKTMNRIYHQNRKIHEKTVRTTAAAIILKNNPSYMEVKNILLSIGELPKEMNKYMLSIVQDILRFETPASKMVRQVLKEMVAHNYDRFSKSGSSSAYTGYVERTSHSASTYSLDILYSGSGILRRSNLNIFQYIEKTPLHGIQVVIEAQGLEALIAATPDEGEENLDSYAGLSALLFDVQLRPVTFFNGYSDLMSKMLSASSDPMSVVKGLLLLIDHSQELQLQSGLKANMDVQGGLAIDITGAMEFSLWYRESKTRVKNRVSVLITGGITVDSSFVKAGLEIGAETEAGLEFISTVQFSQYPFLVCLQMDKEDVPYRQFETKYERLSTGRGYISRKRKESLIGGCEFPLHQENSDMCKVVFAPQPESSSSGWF
T1 sequence (P05307 21-510 partner): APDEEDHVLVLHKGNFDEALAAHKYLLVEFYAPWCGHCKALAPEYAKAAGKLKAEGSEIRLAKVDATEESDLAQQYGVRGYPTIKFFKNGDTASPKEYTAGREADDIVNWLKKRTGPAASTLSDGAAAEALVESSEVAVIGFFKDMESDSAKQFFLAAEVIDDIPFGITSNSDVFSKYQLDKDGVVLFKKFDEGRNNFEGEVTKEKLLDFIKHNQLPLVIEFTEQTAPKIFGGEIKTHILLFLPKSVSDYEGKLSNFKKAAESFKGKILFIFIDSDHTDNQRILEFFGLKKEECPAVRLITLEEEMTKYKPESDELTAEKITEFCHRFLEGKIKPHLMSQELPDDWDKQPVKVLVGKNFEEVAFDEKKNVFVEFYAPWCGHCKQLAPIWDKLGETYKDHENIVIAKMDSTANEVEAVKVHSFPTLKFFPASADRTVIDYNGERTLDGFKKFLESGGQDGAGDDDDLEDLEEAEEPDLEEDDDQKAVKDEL
Procedure: Microsomal triglyceride transfer protein (MTP) from bovine liver was partially purified in such a way described below. A buffer (50 mM Tris, 250 mM sucrose, 1 mM EDTA, 0.02% NaN3 (pH 7.4)) for making a homogenate preparation was added to bovine liver, and the mixture was homogenated under ice-cooling, then centrifuged at 10,000×g (4° C., 30 minutes) The supernatant was adjusted to pH 5.1 with hydrochloric acid, and stirred for 30 minutes. The solution was further centrifuged at 10,000×g (4° C., 30 minutes), and 1 mM Tris buffer was added to the precipitated residue, and the mixture was adjusted to pH 8.6 with sodium hydroxide. After addition of 2.7 M ammonium sulfate solution, the mixture was stirred for 30 minutes, then centrifuged at 10,000×g (4° C., 40 minutes). The resulting supernatant was served as a crude extraction fraction of MTP and stored at −80° C. under freezing. In its practical use, the crude extraction fraction of MTP was purified by column chromatography on diethylaminoethyl (DEAE) Sepharose using FPLC (Fast Performance Liquid Chromatography) system, and the purified MTP was used for the test.
Small unilamellar-vesicle (SUV) liposome (donor, 0.25 mol % triolein, 5 mol % cardiolipin) labeled with ^14C-triolein and non-labeled SUV liposome (acceptor, 0.25 mol % triolein) were prepared. A fixed amount of donor and acceptor, and MTP were mixed with a sample dissolved in DMSO or with DMSO. The mixture was incubated in a 15 mM Tris hydrochloride buffer (pH 7.4) containing 40 mM sodium chloride, 1 mM EDTA (ethylenediaminetetraacetic acid), 0.02% NaN3 and 0.5% bovine serum albumin at 37° C. for one hour. After completion of the incubation, a suspension of DEAE cellulose (50% v/v) in 15 mM Tris hydrochloride buffer (pH 7.4) was added to the above solution, and the mixture was centrifuged to separate the donor and the acceptor. The radioactivity in the acceptor was measured by liquid scintillation counter. The value obtained by subtracting the radioactivity in the blank from the amount of radioactivity in the acceptor of a DMSO group was determined as MTP-mediated TG transfer activity, and it was compared with the value obtained by subtracting the radioactivity in the blank from the radioactivity in a sample group. The blank was prepared by adding 15 mM Tris-HCl buffer (pH 7.4) in place of MTP. Inhibition rate (%) was calculated from the values obtained according to the following equation.
Inhibition rate (%)=100×(1 minus ((radioactivity of sample group minus radioactivity of blank group)/(radioactivity of DMSO group minus radioactivity of blank group))). 50% Inhibition rate (IC50) was determined on the basis of the above equation.

Row | SMILES | IC50 [1] [nM] | IC50 [2] [nM] | melting point [°C]
1 | CCOC(=O)C(COC(=O)Cc1ccc(NC(=O)c2ccccc2-c2ccc(C(F)(F)F)cc2)c(OC(=O)CC)c1)(C(=O)OCC)c1ccccc1 [Example 1-2] | < 1000 | < 10 | 
2 | CCOC(=O)C(COC(=O)Cc1ccc(NC(=O)c2ccccc2-c2ccc(C(F)(F)F)cc2)c(OC(=O)COC)c1)(C(=O)OCC)c1ccccc1 [Example 1-3] | < 1000 | < 10 | 
3 | CCOC(=O)C(COC(=O)Cc1cccc(NC(=O)c2ccccc2-c2ccc(C(F)(F)F)cc2)c1OC(C)=O)(C(=O)OCC)c1ccccc1 [Example 1-4] | < 10000 | 10 to 100 | 
4 | CCOC(=O)C(COC(=O)COc1ccc(NC(=O)c2ccccc2-c2ccc(C(F)(F)F)cc2)c(C(=O)N(C)C)c1)(C(=O)OCC)c1ccccc1 [Example 3-2, 2-(2-{3-Dimethylcarbamoyl-4-[(4′-trifluoromethylbiphenyl-2-carbonyl)amino]phenoxy}acetoxymethyl)-2-phenylmalonic acid diethyl ester] |  | < 10 | 132 to 138
5 | CCOC(=O)C(CCC(=O)Oc1c(F)cc(NC(=O)c2ccccc2-c2ccc(C(F)(F)F)cc2)c(C(=O)NC)c1F)(C(=O)OCC)c1ccccc1 [Example 3-10] |  | < 10 | 
6 | CCNC(=O)C(COCC(=O)Oc1ccc(NC(=O)c2ccccc2-c2ccc(C(F)(F)F)cc2)c(C(=O)N(C)C)c1)(C(=O)NCC)c1ccccc1 [Example 3-12] |  | < 10 | 
7 | CCNC(=O)C(CCCCC(=O)Oc1c(F)cc(NC(=O)c2ccccc2-c2ccc(C(F)(F)F)cc2)c(C(=O)N(C)C)c1F)(C(=O)NCC)c1cccs1 [Example 3-15] |  | 100 to 1000 | 
8 | CCNC(=O)C(COCCC(=O)Oc1c(F)cc(NC(=O)c2ccccc2-c2ccc(C(F)(F)F)cc2)c(C(=O)N(C)C)c1F)(C(=O)NCC)c1ccccc1 [Example 3-16] |  | < 10 | 
9 | CCNC(=O)C(CCCC(=O)Oc1c(F)cc(NC(=O)c2ccccc2-c2ccc(C(F)(F)F)cc2)c(C(=O)N(C)C)c1F)(C(=O)NCC)c1cccs1 [Example 3-17] |  | 10 to 100 | 
10 | CCN(C)C(=O)C(CCC(=O)Oc1c(F)cc(NC(=O)c2ccccc2-c2ccc(C(F)(F)F)cc2)c(C(=O)N(C)C)c1F)(C(=O)N(C)CC)c1ccccc1 [Example 3-18] |  | 10 to 100 | 
11 | CCN(C)C(=O)C(CCCC(=O)Oc1c(F)cc(NC(=O)c2ccccc2-c2ccc(C(F)(F)F)cc2)c(C(=O)N(C)C)c1F)(C(=O)N(C)CC)c1ccccc1 [Example 3-19] |  | 100 to 1000 | 
12 | CCOC(=O)C(CCC(=O)Oc1c(F)cc(NC(=O)c2ccccc2-c2ccc(C(F)(F)F)cc2)c(C(=O)N(C)C)c1F)(C(=O)OCC)c1cccs1 [Example 3-20] |  | < 10 | 
13 | CCOC(=O)C(CCC(=O)Oc1c(F)cc(NC(=O)c2ccc(C)cc2-c2ccc(C(F)(F)F)cc2)c(C(=O)N(C)C)c1F)(C(=O)OCC)c1cccs1 [Example 3-21] |  | < 10 | 
14 | CCOC(=O)C(CCC(=O)Oc1c(F)cc(NC(=O)c2ccc(C)cc2-c2ccc(C(F)(F)F)cc2)c(C(=O)N(C)C)c1F)(C(=O)OCC)c1ccccc1 [Example 3-22] |  | < 10 | 
15 | CCOC(=O)C(CC(=O)OCc1ccc(NC(=O)c2ccccc2-c2ccc(C(F)(F)F)cc2)c(C(=O)N(C)C)c1)(C(=O)OCC)c1ccccn1 [Example 3-23] |  | < 10 | 
16 | CCNC(=O)C(COCC(=O)OCc1ccc(NC(=O)c2ccccc2-c2ccc(C(F)(F)F)cc2)c(C(=O)N(C)C)c1)(C(=O)NCC)c1ccccc1 [Example 3-24] |  | < 10 | 
